Results as given in patent EP0596449A2, “Serotonin receptor antagonists for treating myocardial ischemia” (E.R. SQUIBB & SONS, INC., priority 1992, dated 1994).

System: alpha, Adrenoceptors
Experiment: Methoxamine-induced contraction in rat aortic rings (alpha1 blocking potency)
Details: 45 minute incubation; Figure 5B
Procedure: In order to determine the alpha1 blocking potency of cinanserin, ketanserin and LY 53857, their effect on methoxamine induced aortic constriction was determined. Male Sprague-Dawley rats were sacrificed using C02. Aortic rings (3 mm in width) were cut, denuded of endothelium by gently rolling the rings on moistened filter paper, and mounted on stainless steel hooks in 20 mL muscle chambers containing oxygenated physiological salt solution (PSS) of the following composition (in mM): 118.4 NaCI, 4.7 KCI, 1.2 MgS04, 1.2 KH2P04, 1.9 CaC12, 25.0 NaHC03, 10.1 D-glucose, and 0.01 mM Na2EDTA maintained at 37 °C. The hooks were connected to Grass FT03C transducers for recording of isometric force development. The rings were stretched to 2 g preload during the equilibration period. During equilibration the rings were periodically stimulated with 24 mM KCI to determine contractility. The effectiveness of endothelial removal was confirmed by the absence of relaxation by 1 µM acetylcholine of a contraction in response to 0.01 µM phenylephrine.
Various concentrations of the test compounds were then added to individual baths and allowed a 45 minute incubation before cumulative concentration response curves for methoxamine (1 nM-30 /1.M) were obtained. Solvent controls were run in parallel. […]

Compound: O=C(c1ccc(F)cc1)C1CCN(CCn2c(=O)[nH]c3ccccc3c2=O)CC1 [Ketanserin, ketanserin]
- concentration from which the shift of the methoxamine-tension curve was significant: 0.3 µM
